According to patent US20240366612A1, “COMPOUNDS AND METHODS FOR MODULATING NUCLEIC ACID SPLICING” (REMIX THERAPEUTICS INC., priority 2021, published 2024):

How the values were obtained:
Target C CJ mRNA = test: Gene panel canonical junction qPCR assay, Target C; assay type: cell-based; conditions: Homo sapiens, larger gene panel, read-out: Target C IC50 (decrease in CJ mRNA levels)
Description: Compounds described herein were used to modulate RNA transcript abundance in cells. The expression of a target mRNA was measured by detecting the formation of an exon-exon junction in the canonical transcript (CJ). A compound mediated exon-inclusion event was detected by observing an increase in formation of a new junction with an alternative exon (AJ). Real-time qPCR assays were used to detect these splicing switches and interrogate the potency of various compounds towards different target genes. A high-throughput real time quantitative PCR (RT-qPCR) assay was developed to measure these two isoforms of the mRNA (CJ and AJ) for exemplary genes, such as HTT, SMN2, and MYB, together with a control housekeeping gene, GAPDH or GUSB or PPIA, used for normalization. Briefly, the A673 or K562 cell line was treated with various compounds described herein (e.g., compounds of Formula (I)). After treatment, the levels of the HTT, MYB, or SMN2 mRNA targets were determined from each sample of cell lysate by cDNA synthesis followed by qPCR.
The A673 cell line was cultured in DMEM with 10% FBS. Cells were diluted with full growth media and plated in a 96-well plate (15,000 cells in 100 ul media per well). The plate was incubated at 37° C. with 5% CO2 for 24 hours to allow cells to adhere. An 11-point 3-fold serial dilution of the compounds was made in DMSO then diluted in media in an intermediate plate. Compounds were transferred from the intermediate plate to the cell plate with the top dose at a final concentration of 10 uM in the well. Final DMSO concentration was kept at or below 0.25%. The cell plate was returned to the incubator at 37° C. with 5% CO2 for an additional 24 hours.
The K562 cell line was cultured in IMDM with 10% FBS. For K562, cells were diluted with full growth media and plated in either a 96-well plate (50,000 cells in 50 uL media per well) or a 384-well plate (8,000-40,000 cells in 45 uL media per well). An 11-point 3-fold serial dilution of the compounds were made in DMSO then diluted in media in an intermediate plate. Compound was transferred from the intermediate plate to the cell plate with the top dose at a final concentration of 10 uM in the well. Final DMSO concentration was kept at or below 0.25%. Final volume was 100 uL for 96-well plate and 50 uL for 384-well plate. The cell plate was then placed in an incubator at 37° C. with 5% CO2 for 24 hours.
The data analysis was performed by first determining the ΔCt vs the housekeeper gene. This ΔCt was then normalized against the DMSO control (ΔΔCt) and converted to RQ (relative quantification) using the 2^(−ΔΔCt) equation. The RQ were then converted to a percentage response by arbitrarily setting an assay window of 3.5 and 4.0 ΔCt for HTT-CJ and MYB-CJ respectively and an assay window of 9 and 3 ΔCt for HTT-AJ and MYB-AJ in 96 well format (50,000 K562 cells/well and 15,000 A673 cells per well) and an assay window of 3 and 4 ΔCt for HTT-CJ and MYB-CJ respectively and an assay window of 5 and 3 ΔCt for HTT-AJ and MYB-AJ respectively in 384 well format (8,000 K562 cells/well example). […] The percentage response was then fitted to the 4 parametric logistic equation to evaluate the concentration dependence of compound treatment. The increase in AJ mRNA is reported as AC50 (compound concentration having […] in AJ increase) while the decrease in CJ mRNA levels is reported as IC50 (compound concentration having 50% response in CJ decrease).
Additional studies were carried out for a larger panel of genes using the protocol provided above. The junction between flanking upstream and downstream exons was used to design canonical junction qPCR assays. At least one of the forward primer, reverse primer or the CY5-labeled 5′ nuclease probe (with 3′ quencher such as ZEN/Iowa Black FQ) was designed to overlap with the exon junction to capture the CJ mRNA transcript. […]

[1] = tested on: HiBiT-tagged MYB protein in K562 cells; test: HiBiT protein abundance assay, MYB; assay type: cell-based, human; conditions: HiBiT-modified K562 cells, 24 hours, luminescence
Description: (§1) Compounds described herein were used to screen for effects on quantitative protein abundance using a HiBit assay system (Promega). Quantitative protein abundance was determined by measuring the protein levels of HiBit-tagged protein targets expressed in cell culture via luminescence using the Nano-Glo HiBiT Lytic Detection System, which uses a split complementation assay format to reconstitute NanoBiT enzyme to generate a luminescent signal. A protein abundance assay was developed such that endogenous protein targets could be modified with the HiBiT peptide tag and their abundance could be assessed after compound treatment. Briefly, K562 cell lines containing a HiBiT-modification were treated with various compounds described herein (e.g., compounds of Formulas (I), (II), or (III)). After treatment for 24 hours, the protein abundance of a specific target was determined by measuring luminescence.
(§2) • Promega Nano-Glo HiBiT Lytic Detection System (cat #N3030) • Corning 384-well TC-treated microplates (cat #3570) • Synthego Engineered Cells Knock-In Clones
(§3) Cells were maintained in IMDM with 10% FBS. Before the assay, cells were diluted with […] growth media (IMDM+1% FBS media) and were seeded in a 384-well plate at a density of 10000 cells/well (for each cell line listed in Table 5). Each compound was prepared as a 10-point 3-fold serial dilution in DMSO with the top dose at a final concentration of 10 μM in the well. Unmodified K562 cells were added at the previously specified density with DMSO to serve as an assay baseline and positive control (PC) and DMSO only with the respective modified cell lines was added to the negative control (NC) columns. Final DMSO concentration was kept at or below 0.25%. Treated cell plates were placed in an incubator at 37° C. with 5% CO2 for 24 hours. After 24 hours, 25 μL of Complete HiBit Lytic reagent was added to each well at room temperature (e.g. one plate requiring 10 mL Lytic Buffer, 100 μL LgBiT Protein, 200 μL Lytic Substrate), shaken for 5 minutes at 600 RPM, then left to sit for 10 minutes for signal to stabilize before reading on a Spark Cyto plate reader (Tecan) with a 500 ms measurement time.
(§4) To determine compound effects on protein abundance of each target in Table 5, the percent response for each respective cell line was calculated at each compound concentration as follows:
(§5) For the normalized response at each concentration, a four-parameter logistical regression was fit to the data and the response was interpolated at the 50% value to determine a concentration for protein abundance at 50% (IC50) the untreated control.

[2] = tested on: HiBiT-tagged Target C protein in K562 cells; test: HiBiT protein abundance assay, Target C; assay type: cell-based, human; conditions: HiBiT-modified K562 cells, 24 hours, luminescence
Description: as §1, §2, §3, §4, §5

IC50 (Target C CJ mRNA)	IC50 [1]	IC50 [2]	SMILES
1000 to 10000 nM	100 to 1000 nM	1000 to 10000 nM	Cc1cn2cc(-c3cc4ccn(C5CCN(C)CC5)c(=O)c4s3)cc(F)c2n1 [Compound 808, 2-(8-fluoro-2-methylimidazo[1,2-a]pyridin-6-yl)-6-(1-methylpiperidin-4-yl)thieno[2,3-c]pyridin-7(6H)-one]
> 10000 nM	> 10000 nM	> 10000 nM	Cc1cn2cc(-c3cc4ncn(C5CNCCC5=O)c(=O)c4s3)cc(F)c2n1 (stereo not drawn) [Compound 279, 3-(6-{8-fluoro-2-methylimidazo[1,2-a]pyridin-6-yl}-4-oxothieno [3,2-d]pyrimidin-3-yl)piperidin-4-one]
100 to 1000 nM	< 100 nM	100 to 1000 nM	Cc1cc(-c2cc3ncn(C4CCNCC4)c(=O)c3s2)cc2cn(C)nc12 [Compound 236, 6-(2,7-dimethyl-2H-indazol-5-yl)-3-(piperidin-4-yl)thieno[3,2-d]pyrimidin-4(3H)-one]
1000 to 10000 nM	1000 to 10000 nM	1000 to 10000 nM	Cc1cn2cc(-c3cc4ncn([C@H]5CCNC[C@H]5F)c(=O)c4s3)cc(F)c2n1 (relative stereo) [Compound 273, cis-6-{8-fluoro-2-methylimidazo[1,2-a]pyridin-6-yl}-3-[3-fluoropiperidin-4-yl]thieno[3,2-d]pyrimidin-4-one]
> 10000 nM	> 10000 nM	> 10000 nM	Cc1cn2nc(-c3nc4sc(N5CCN(C)CC5)nc4c(=O)[nH]3)cc2c(C)n1 [Compound 268]
> 10000 nM	> 10000 nM	> 10000 nM	Cc1cn2cc(N3CCc4cc(C5CCNCC5)sc4C3=O)cc(F)c2n1 [Compound 800, 6-[8-fluoro-2-methylimidazo[1,2-a]pyridin-6-yl]-2-(piperidin-4-yl)-4H,5H-thieno[2,3-c]pyridin-7-one]
1000 to 10000 nM	1000 to 10000 nM	1000 to 10000 nM	Cc1cn2cc(-c3nn4c(=O)cc(N5CCNC6(CC6)C5)nc4s3)cc(F)c2n1 [Compound 216, 2-(8-fluoro-2-methylimidazo[1,2-a]pyridin-6-yl)-7-(4,7-diazaspiro[2.5]octan-7-yl)-5H-[1,3,4]thiadiazolo[3,2-a]pyrimidin-5-one]
1000 to 10000 nM	< 100 nM	100 to 1000 nM	Cc1cc(-c2nc3ncn(C4CCN(C)CC4)c(=O)c3s2)cc2cn(C)nc12 [Compound 234, 2-(2,7-dimethyl-2H-indazol-5-yl)-6-(1-methylpiperidin-4-yl)thiazolo[4,5-d]pyrimidin-7(6H)-one]
1000 to 10000 nM	1000 to 10000 nM	1000 to 10000 nM	COc1cc(-c2cc3ncn(C4CCNCC4)c(=O)c3s2)ccn1 [Compound 263]
100 to 1000 nM	100 to 1000 nM	100 to 1000 nM	Cc1cn2cc(-c3nc4ncn(C5CCNCC5)c(=O)c4s3)cc(F)c2n1 [Compound 232, 2-(8-fluoro-2-methylimidazo[1,2-a]pyridin-6-yl)-6-(piperidin-4-yl)thiazolo[4,5-d]pyrimidin-7(6H)-one]
> 10000 nM	> 10000 nM	> 10000 nM	Cc1cn2cc(-c3nn4c(=O)cc(N5CCNCC5)nc4s3)cc(F)c2n1 [Compound 214, 2-(8-fluoro-2-methylimidazo[1,2-a]pyridin-6-yl)-7-(piperazin-1-yl)-5H-[1,3,4]thiadiazolo[3,2-a]pyrimidin-5-one]
1000 to 10000 nM	1000 to 10000 nM	1000 to 10000 nM	Cn1cc2cc(-c3cc4ncn(C5CCNCC5)c(=O)c4s3)cc(F)c2n1 [Compound 257]
> 10000 nM	> 10000 nM	> 10000 nM	Cc1cn2cc(-n3cnc4nc(N5CCNCC5)sc4c3=O)cc(C(F)(F)F)c2n1 [Compound 229, 6-(2-methyl-8-(trifluoromethyl)imidazo[1,2-a]pyridin-6-yl)-2-(piperazin-1-yl)thiazolo[4,5-d]pyrimidin-7(6H)-one]
> 10000 nM	> 10000 nM	> 10000 nM	Cc1cc(-c2cc(=O)n3cc(N4CCN(C)CC4)sc3n2)cc2cn(C)nc12 [Compound 109, 7-(2,7-dimethyl-2H-indazol-5-yl)-2-(4-methylpiperazin-1-yl)-5H-thiazolo[3,2-a]pyrimidin-5-one]
> 10000 nM	1000 to 10000 nM	> 10000 nM	Cc1nc(-c2nc3cnn(C4CCNCC4)c(=O)c3s2)cc2cn(C)nc12 [Compound 811]
100 to 1000 nM	100 to 1000 nM	100 to 1000 nM	Cc1cn2cc(-c3cc4ncn(C5=CCNCC5)c(=O)c4s3)cc(F)c2n1 [Compound 276, 6-{8-fluoro-2-methylimidazo[1,2-a]pyridin-6-yl}-3-(1,2,3,6-tetrahydropyridin-4-yl)thieno[3,2-d]pyrimidin-4-one]
> 10000 nM	> 10000 nM	> 10000 nM	Cc1cn2cc(-c3cc4ncn(C5CCNCC5(F)F)c(=O)c4s3)cc(F)c2n1 (stereo not drawn) [Compound 274, 3-(3,3-difluoropiperidin-4-yl)-6-{8-fluoro-2-methylimidazo[1,2-a]pyridin-6-yl}thieno[3,2-d]pyrimidin-4-one]
100 to 1000 nM	100 to 1000 nM	100 to 1000 nM	Cc1cn2cc(-c3cc4ncn(C5CCN(C)CC5)c(=O)c4s3)cc(F)c2n1 [Compound 265, 6-{8-fluoro-2-methylimidazo[1,2-a]pyridin-6-yl}-3-(1-methylpiperidin-4-yl)thieno[3,2-d]pyrimidin-4-one]
100 to 1000 nM	100 to 1000 nM	100 to 1000 nM	Cc1cn2nc(-c3nc4cnn(C5CCNCC5)c(=O)c4s3)cc(C)c2n1 [Compound 810]
